According to patent US20220195384A1, “COMPOSITION FOR PROMOTING PRODUCTION OF STEM CELL-DERIVED EXOSOMES AND INCREASING STEMNESS” (BREXOGEN INC., priority 2019, published 2022):
Where no end group is shown, it is not given here.

Key:
Assay type in all cases: cell-based
[1] = tested on: primary umbilical cord-derived mesenchymal stem cells; test: Stem cell proliferation (CCK, absorbance 450 nm) after pretreatment; conditions: 24 h culture, CCK 4 h
Procedure: (§1) In a culture medium [high glucose DMEM (Gibco, Cat no. 11995-065); 10% fetal bovine serum (HyClone), 1% MEM non-essential amino acids solution (100×) (Gibco, Cat no. 11140-050)] containing 20 nM of exendin-4, primary umbilical cord-derived mesenchymal stem cells (ATCC No. PCS-500-010; Lot No. 63822428) were cultured for one week.
as §1, with “10” for “20”, “PMA,” for “exendin-4,”
as §1, with “10 ng/mL interferon-γ,” for “20 nM of exendin-4,”
as §1, with “10 μM” for “20 nM”, “tetrandrine,” for “exendin-4,”
as §1, with “10 μg/mL hyaluronic acid,” for “20 nM of exendin-4,”
as §1, with “30” for “20”, “substance P,” for “exendin-4,”
as §1, with “10” for “20”, “resveratrol,” for “exendin-4,”
as §1, with “10 μM” for “20 nM”, “lanifibranor,” for “exendin-4,”
(§2) Mesenchymal stem cells and the exendin-4-pretreated mesenchymal stem cells of the Example were each seeded at a density of 3,000 cells/well into 96-well plates containing 100 μL of a culture medium [high glucose DMEM (Gibco, Cat no. 11995-065), 10% fetal bovine serum (HyClone), 1% MEM non-essential amino acids solution (100×) (Gibco, Cat no. 11140-050)] per well and cultured for 24 hours in a CO2 incubator. Then, CCK solution (10 μL/well) was added, and incubation was continued for 4 hours in the CO2 incubator, followed by reading absorbance at a wavelength of 450 nm (420-480 nm) to determine proliferation.
as §2, with “PMA-pretreated” for “exendin-4-pretreated”, “proliferation. […]” for “proliferation.”

[2] = tested on: primary umbilical cord-derived mesenchymal stem cells; test: Number of exosomes by nanoparticle tracking assay (NanoSight NS300); conditions: for No. of exosome particles, yield per 10^6 cells: then 72 h exosome-free FBS medium, non-treated 2.3
Procedure: as §1
(§3) After completion of culturing, the mesenchymal stem cells pretreated with exendin-4 were washed and additionally cultured for 72 hours in a culture medium supplemented with 10% fetal bovine serum (FBS) free of exosomes. The reason of employing exosome-free FBS was to prevent FBS-derived exosomes other than those secreted from the cells from being incorporated because generally used FBS contained a large amount of exosomes derived from bovine serum.
(§4) After 72 hours of culturing, the culture medium in which the pretreated mesenchymal stem cells were cultured was taken and centrifuged at 300×g for 10 min to remove residual cells and cell debris. The supernatant was filtered through a 0.22 μm filter, followed by centrifugation at 10,000×g and 4° C. for 70 min in a high-speed centrifuge. The supernatant thus obtained was subjected again to ultracentrifugation at 100,000×g and 4° C. for 90 min. The exosomes obtained as a pellet were diluted in PBS (phosphate buffered saline) before use in the following experiments.
as §1, with “10” for “20”, “PMA,” for “exendin-4,”
as §3, with “PMA” for “exendin-4”
as §1, with “10 ng/mL interferon-γ,” for “20 nM of exendin-4,”
as §3, with “interferon-γ” for “exendin-4”
as §1, with “10 μM” for “20 nM”, “tetrandrine,” for “exendin-4,”
as §3, with “tetrandrine” for “exendin-4”, “serum. […]” for “serum.”

[3] = tested on: primary umbilical cord-derived mesenchymal stem cells; test: Content of exosomal RNA (NanoDrop); conditions: for Exosomal RNA, yield per 10^6 cells: then 72 h exosome-free FBS medium, non-treated 31.0
Procedure: as §1, §3, §4
as §1, with “10” for “20”, “PMA,” for “exendin-4,”
as §3, with “PMA” for “exendin-4”
as §1, with “10 ng/mL interferon-γ,” for “20 nM of exendin-4,”
as §3, with “interferon-γ” for “exendin-4”
as §1, with “10 μM” for “20 nM”, “tetrandrine,” for “exendin-4,”
as §3, with “tetrandrine” for “exendin-4”, “serum. […]” for “serum.”

[4] = tested on: primary umbilical cord-derived mesenchymal stem cells; test: Content of exosomal protein (Bradford analysis, 595 nm); conditions: for Exosomal protein, yield per 10^6 cells: then 72 h exosome-free FBS medium, non-treated 2.0
Procedure: as §1, §3, §4
as §1, with “10” for “20”, “PMA,” for “exendin-4,”
as §3, with “PMA” for “exendin-4”
as §1, with “10 ng/mL interferon-γ,” for “20 nM of exendin-4,”
as §3, with “interferon-γ” for “exendin-4”
as §1, with “10 μM” for “20 nM”, “tetrandrine,” for “exendin-4,”
as §3, with “tetrandrine” for “exendin-4”, “serum. […]” for “serum.”

[5] = tested on: primary umbilical cord-derived mesenchymal stem cells; test: Stem cell stemness: colony formation (CFU-F, crystal violet) after pretreatment; conditions: for colonies formed (each 50 or more cells): 1,000 cells/dish, 21 days; for CFU-F increase: vs non-treated
Procedure: as §1
as §1, with “10” for “20”, “PMA,” for “exendin-4,”
as §1, with “10 ng/mL interferon-γ,” for “20 nM of exendin-4,”
as §1, with “10 μM” for “20 nM”, “tetrandrine,” for “exendin-4,”
as §1, with “10 μg/mL hyaluronic acid,” for “20 nM of exendin-4,”
as §1, with “30” for “20”, “substance P,” for “exendin-4,”
as §1, with “10” for “20”, “resveratrol,” for “exendin-4,”
as §1, with “10 μM” for “20 nM”, “lanifibranor,” for “exendin-4,”
Mesenchymal stem cells and the exendin-4-pretreated mesenchymal stem cells of the Example were each seeded at a density of 1,000 cells/dish into 100-mm cell culture dishes containing […] of a culture medium [high glucose DMEM (Gibco, Cat no. 11995-065), 10% fetal bovine serum (HyClone), 1% MEM non-essential amino acids solution (100×) (Gibco, Cat no. 11140-050)] per dish and cultured for 21 days. The cell-attached dishes were washed twice with PBS, followed by fixation with 95% methanol at room temperature for about 2 min. The fixed cells were washed three times with PBS and stained with 0.5% crystal violet [(sigma, C-3886, USA) […], methanol 100 ml] for 5 min. After water washing and drying at room temperature, colonies, each composed of 50 or more cells, were counted for comparison.
Mesenchymal stem cells and the PMA-pretreated mesenchymal stem cells of the Example were each seeded at a density of 1,000 cells/dish into 100-mm cell culture dishes containing […] of a culture medium [high glucose DMEM (Gibco, Cat no. 11995-065), 10% fetal bovine serum (HyClone), 1% MEM non-essential amino acids solution (100×) (Gibco, Cat no. 11140-050)] per dish and cultured for 21 days. The cell-attached dishes were washed twice with PBS, followed by fixation with 95% methanol at room temperature for about 2 min. […]

[6] = 10 nM resveratrol pretreatment one week
[7] = 30 nM substance P pretreatment one week
[8] = 10 nM PMA pretreatment one week
[9] = 10 μM tetrandrine pretreatment one week

Compound: Oc1ccc(C=Cc2cc(O)cc(O)c2)cc1 [resveratrol]
- increase in proliferation relative to non-treated mesenchymal stem cells [1, 6]: about 322%
- proliferation ratio relative to non-treated mesenchymal stem cells (1) [1, 6]: 3.22
- fold more exosomes than non-treated mesenchymal stem cells [2, 6]: about 5.2 fold
- No. of exosome particles, yield per 10^6 cells [2, 6]: 11.9 10^9
- fold greater exosomal RNA than non-treated mesenchymal stem cells [3, 6]: about 4.7 fold
- Exosomal RNA, yield per 10^6 cells [3, 6]: 145.15 ng
- fold greater exosomal proteins than non-treated mesenchymal stem cells [4, 6]: about 5.4 fold
- Exosomal protein, yield per 10^6 cells [4, 6]: 10.78 ug
- colonies formed (each 50 or more cells) ([5]; 10 nM resveratrol pretreatment one week, non-treated 28.6): 311 colonies
- CFU-F increase [5, 6]: about 1,087%

Compound: substance P (RPKPQQFFGLM; not fully specified; ends and bridges not checked; UniProt P20366 58-68, looked up) [undecapeptide of the tachykinin neuropeptide family acting on NK1 receptor; SubsP MSC-Exo = exosomes of treated mesenchymal stem cells]
- increase in proliferation relative to non-treated mesenchymal stem cells [1, 7]: about 290%
- proliferation ratio relative to non-treated mesenchymal stem cells (1) [1, 7]: 2.9
- fold more exosomes than non-treated mesenchymal stem cells [2, 7]: about 4.3 fold
- No. of exosome particles, yield per 10^6 cells [2, 7]: 9.93 10^9
- fold greater exosomal RNA than non-treated mesenchymal stem cells [3, 7]: about 4.9 fold
- Exosomal RNA, yield per 10^6 cells [3, 7]: 150.84 ng
- fold greater exosomal proteins than non-treated mesenchymal stem cells [4, 7]: about 5.2 fold
- Exosomal protein, yield per 10^6 cells [4, 7]: 10.37 ug
- colonies formed (each 50 or more cells) ([5]; 30 nM substance P pretreatment one week, non-treated 28.7): 116 colonies
- CFU-F increase [5, 7]: about 404%

Compound: CCCCCCCCCCCCCC(=O)O[C@@H]1[C@@H](C)[C@@]2(O)[C@@H](C=C(CO)C[C@]3(O)C(=O)C(C)=C[C@@H]23)[C@@H]2C(C)(C)[C@]12OC(C)=O [PMA, phorbol 12-myristate 13-acetate]
- increase in proliferation relative to non-treated mesenchymal stem cells [1, 8]: about 220%
- proliferation ratio relative to non-treated mesenchymal stem cells (1) [1, 8]: 2.2
- fold more exosomes than non-treated mesenchymal stem cells [2, 8]: about 5.2 fold
- No. of exosome particles, yield per 10^6 cells [2, 8]: 11.90 10^9
- fold greater exosomal RNA than non-treated mesenchymal stem cells [3, 8]: about 4 fold
- Exosomal RNA, yield per 10^6 cells [3, 8]: 125.0 ng
- fold greater exosomal proteins than non-treated mesenchymal stem cells [4, 8]: about 5 fold
- Exosomal protein, yield per 10^6 cells [4, 8]: 10.0 ug
- colonies formed (each 50 or more cells) ([5]; 10 nM PMA pretreatment one week, non-treated 28.6): 285.7 colonies
- CFU-F increase [5, 8]: about 996.5%

Compound: COc1ccc2cc1Oc1ccc(cc1)C[C@H]1c3cc(c(OC)cc3CCN1C)Oc1c(OC)c(OC)cc3c1[C@H](C2)N(C)CC3 [tetrandrine]
- increase in proliferation relative to non-treated mesenchymal stem cells [1, 9]: about 260%
- proliferation ratio relative to non-treated mesenchymal stem cells (1) [1, 9]: 2.6
- fold more exosomes than non-treated mesenchymal stem cells [2, 9]: about 4.3 fold
- No. of exosome particles, yield per 10^6 cells [2, 9]: 9.84 10^9
- fold greater exosomal RNA than non-treated mesenchymal stem cells [3, 9]: about 4.4 fold
- Exosomal RNA, yield per 10^6 cells [3, 9]: 136.0 ng
- fold greater exosomal proteins than non-treated mesenchymal stem cells [4, 9]: about 4.5 fold
- Exosomal protein, yield per 10^6 cells [4, 9]: 9.42 ug
- colonies formed (each 50 or more cells) ([5]; 10 μM tetrandrine pretreatment one week, non-treated 28.7): 121.3 colonies
- CFU-F increase [5, 9]: about 423%
